# Laboratory results taken from patent US7951836B2, “Substituted phenyl methanone derivatives” (Hoffmann-La Roche Inc., priority 2006, dated 2011).
# Target: T1, mGlyT-1b (Mus musculus, UniProt P28571)
# T1 construct: host or cells: Flp-in-CHO
# T1 sequence (P28571 1-651 isoform P28571-2): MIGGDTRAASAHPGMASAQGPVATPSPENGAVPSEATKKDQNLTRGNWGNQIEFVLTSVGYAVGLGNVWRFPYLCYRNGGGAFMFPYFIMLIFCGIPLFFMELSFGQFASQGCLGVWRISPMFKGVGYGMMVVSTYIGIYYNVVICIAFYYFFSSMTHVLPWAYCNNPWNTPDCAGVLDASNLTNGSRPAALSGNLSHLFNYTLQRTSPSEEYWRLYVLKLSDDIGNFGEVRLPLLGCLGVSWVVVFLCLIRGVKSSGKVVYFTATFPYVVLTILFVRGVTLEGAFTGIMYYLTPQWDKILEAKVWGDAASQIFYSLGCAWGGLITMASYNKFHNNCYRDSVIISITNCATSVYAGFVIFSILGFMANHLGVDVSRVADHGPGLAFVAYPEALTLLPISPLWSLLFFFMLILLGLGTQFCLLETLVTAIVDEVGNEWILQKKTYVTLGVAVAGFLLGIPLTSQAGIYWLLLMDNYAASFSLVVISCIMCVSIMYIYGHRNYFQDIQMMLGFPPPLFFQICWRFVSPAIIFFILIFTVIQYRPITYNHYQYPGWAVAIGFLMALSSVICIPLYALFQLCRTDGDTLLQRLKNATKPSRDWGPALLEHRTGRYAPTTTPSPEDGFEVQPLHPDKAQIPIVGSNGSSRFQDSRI
# Assay: Glycine uptake inhibition assay (mGlyT-1b)
# Format: cell-based
# Conditions: not given
# Protocol: DMEM complete medium: Nutrient mixture F-12 (Gibco Life-technologies), fetal bovine serum (FBS) 5%, (Gibco life technologies), Penicillin/Streptomycin 1% (Gibco life technologies), Hygromycin 0.6 mg/ml (Gibco life technologies), Glutamine 1 mM Gibco life technologies) Uptake buffer (UB): 150 mM NaCl, 10 mM Hepes-Tris, pH 7.4, 1 mM CaCl2, 2.5 mM KCl, 2.5 mM MgSO4, 10 mM (+) D-glucose. Flp-inTM-CHO (Invitrogen Cat n° R758-07) cells stably transfected with mGlyT1b cDNA. Glycine Uptake Inhibition […]) On day 1 mammalian cells, (Flp-inTM-CHO), transfected with […] cDNA, were plated at the density of 40,000 cells/well in complete F-12 medium, without hygromycin in 96-well culture plates. On day 2, the medium was aspirated and the cells were washed twice with uptake buffer (UB). The cells were then incubated for 20 min at 22° C. with either (i) no potential competitor, (ii) 10 mM non-radioactive glycine, (iii) a concentration of a potential inhibitor. A range of concentrations of the potential inhibitor was used to generate data for calculating the concentration of inhibitor resulting in 50% of the effect (e.g. […] The plates were incubated with gentle shaking, and the reaction was stopped by aspiration of the mixture and washing (three times) with ice-cold UB. The cells were lysed with scintillation liquid, shaken 3 hours and the radioactivity in the cells was counted using a scintillation counter.
row,IC50 [µM],SMILES
1,0.2,"C[C@H](Oc1ccc(S(C)(=O)=O)cc1C(=O)N1CCC(COc2ccc(Cl)cc2)C1)C(F)(F)F (mixture of isomers) [Example 29, rac-[3-(4-Chloro-phenoxymethyl)-pyrrolidin-1-yl]-[5-methanesulfonyl-2-((S)-2,2,2-trifluoro-1-methyl-ethoxy)-phenyl]-methanone]"
2,0.21,"C[C@H](Oc1ccc(S(C)(=O)=O)cc1C(=O)N1CCC(COc2ccc(C#N)cc2)C1)C(F)(F)F (mixture of isomers) [Example 32, rac-4-{1-[5-Methanesulfonyl-2-((S)-2,2,2-trifluoro-1-methyl-ethoxy)-benzoyl]-pyrrolidin-3-ylmethoxy}-benzonitrile]"

# Same assay, conditions: [3H]-glycine uptake in Flp-in-CHO cells stably transfected with mGlyT1b cDNA; 20 min preincubation at 22° C.; read-out: IC50 (μM) at GlyT-1
row,SMILES,IC50 [µM]
1,"CS(=O)(=O)c1ccc(-c2ccc(F)cc2)c(C(=O)N2CCC(Cc3ccc(C(F)(F)F)cc3)C2)c1 (racemic) [Example 14, rac-(4′-Fluoro-4-methanesulfonyl-biphenyl-2-yl)-[3-(4-trifluoromethyl-benzyl)-pyrrolidin-1-yl]-methanone]",0.5
2,"CS(=O)(=O)c1ccc(OCC2CCC2)c(C(=O)N2CCC(Cc3ccc(C(F)(F)F)cc3)C2)c1 (racemic) [Example 15, rac-(2-Cyclobutylmethoxy-5-methanesulfonyl-phenyl)-[3-(4-trifluoromethyl-benzyl)-pyrrolidin-1-yl]-methanone]",0.24
3,"CS(=O)(=O)c1ccc(OC2CCCC2)c(C(=O)N2CCC(Cc3ccc(C(F)(F)F)cc3)C2)c1 (racemic) [Example 16, rac-(2-Cyclopentyloxy-5-methanesulfonyl-phenyl)-[3-(4-trifluoromethyl-benzyl)-pyrrolidin-1-yl]-methanone]",0.32
4,"C[C@H](Oc1ccc(S(C)(=O)=O)cc1C(=O)N1CCC(COc2ccc(-c3ccccc3)cc2)C1)C(F)(F)F (mixture of isomers) [Example 31, rac-[3-(Biphenyl-4-yloxymethyl)-pyrrolidin-1-yl]-[5-methanesulfonyl-2-((S)-2,2,2-trifluoro-1-methyl-ethoxy)-phenyl]-methanone]",0.45
5,"C[C@H](Oc1ccc(S(C)(=O)=O)cc1C(=O)N1CCC(COc2ccc(Cl)c(Cl)c2)C1)C(F)(F)F (mixture of isomers) [Example 36, rac-[3-(3,4-Dichloro-phenoxymethyl)-pyrrolidin-1-yl]-[5-methanesulfonyl-2-((S)-2,2,2-trifluoro-1-methyl-ethoxy)-phenyl]-methanone]",0.13
6,"COc1cccc(OCC2CCN(C(=O)c3cc(S(C)(=O)=O)ccc3O[C@@H](C)C(F)(F)F)C2)c1 (mixture of isomers) [Example 37, rac-[5-Methanesulfonyl-2-((S)-2,2,2-trifluoro-1-methyl-ethoxy)-phenyl]-[3-(3-methoxy-phenoxymethyl)-pyrrolidin-1-yl]-methanone]",0.17

# Second part, the compound after the results:
row,IC50 [µM],SMILES
1,0.22,"C[C@H](Oc1ccc(S(C)(=O)=O)cc1C(=O)N1CCC(c2ccc(C(F)(F)F)cc2)C1)C(F)(F)F (mixture of isomers) [Example 2, rac-[5-Methanesulfonyl-2-((S)-2,2,2-trifluoro-1-methyl-ethoxy)-phenyl]-[3-(4-trifluoromethyl-phenyl)-pyrrolidin-1-yl]-methanone]"
2,0.11,"C[C@H](Oc1ccc(S(C)(=O)=O)cc1C(=O)N1CCC(Cc2ccc(C(F)(F)F)cc2)C1)C(F)(F)F (mixture of isomers) [Example 11, rac-[5-Methanesulfonyl-2-((S)-2,2,2-trifluoro-1-methyl-ethoxy)-phenyl]-[3-(4-trifluoromethyl-benzyl)-pyrrolidin-1-yl]-methanone]"
3,0.09,"CS(=O)(=O)c1ccc(OCC(F)(F)C(F)(F)F)c(C(=O)N2CCC(Cc3ccc(C(F)(F)F)cc3)C2)c1 (racemic) [Example 13, rac-[5-Methanesulfonyl-2-(2,2,3,3,3-pentafluoro-propoxy)-phenyl]-[3-(4-trifluoromethyl-benzyl)-pyrrolidin-1-yl]-methanone]"
4,0.27,"Cc1ccc(OCC2CCN(C(=O)c3cc(S(C)(=O)=O)ccc3O[C@@H](C)C(F)(F)F)C2)cc1 (mixture of isomers) [Example 30, rac-[5-Methanesulfonyl-2-((S)-2,2,2-trifluoro-1-methyl-ethoxy)-phenyl]-(3-p-tolyloxymethyl-pyrrolidin-1-yl)-methanone]"
5,0.17,"C[C@H](Oc1ccc(S(C)(=O)=O)cc1C(=O)N1CCC(COc2ccc([N+](=O)[O-])cc2)C1)C(F)(F)F (mixture of isomers) [Example 33, rac-[5-Methanesulfonyl-2-((S)-2,2,2-trifluoro-1-methyl-ethoxy)-phenyl]-[3-(4-nitro-phenoxymethyl)-pyrrolidin-1-yl]-methanone]"
6,0.13,"C[C@H](Oc1ccc(S(C)(=O)=O)cc1C(=O)N1CCC(COc2ccc(OC(F)(F)F)cc2)C1)C(F)(F)F (mixture of isomers) [Example 35, rac-[5-Methanesulfonyl-2-((S)-2,2,2-trifluoro-1-methyl-ethoxy)-phenyl]-[3-(4-trifluoromethoxy-phenoxymethyl)-pyrrolidin-1-yl]-methanone]"
